# The supplement of paper PMC10307832
# Columns and labels:
# Assay in all cases: relative viability (nuclei count vs DMSO), 5 days (fraction); higher = more cells survive
# NCI-H322M = tested on: NCI-H322M
# Summary of the method: (§1)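 Lung cancer cell lines were pin-tool dosed in 1536-well plates on the day after seeding, with either a lone drug or a fixed anchor-drug dose plus five library-drug doses (not always all listed) in √10 steps. Nuclei were counted on 4× images after 5 days. Relative viability is the ratio of treated-well to vehicle-well nuclei counts, with each value a median of duplicate plates.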
# NCI-H1793 = tested on: NCI-H1793
# Summary of the method: as §1
# UMC-11 = tested on: UMC-11
# Summary of the method: as §1
# EPLC-272H = tested on: EPLC-272H
# Summary of the method: as §1
# 201T = tested on: 201T
# Summary of the method: as §1
# NCI-H1734 = tested on: NCI-H1734
# Summary of the method: as §1
# NCI-H2023 = tested on: NCI-H2023
# Summary of the method: as §1
# NCI-H441 = tested on: NCI-H441
# Summary of the method: as §1
# NCI-H2405 = tested on: NCI-H2405
# Summary of the method: as §1
# NCI-H3122 = tested on: NCI-H3122
# Summary of the method: as §1
# PC-14 = tested on: PC-14
# Summary of the method: as §1
# COR-L23 = tested on: COR-L23
# Summary of the method: as §1
# HCC-15 = tested on: HCC-15
# Summary of the method: as §1
# NCI-H2170 = tested on: NCI-H2170
# Summary of the method: as §1
# NCI-H2347 = tested on: NCI-H2347
# Summary of the method: as §1
# NCI-H647 = tested on: NCI-H647
# Summary of the method: as §1
# NCI-H1650 = tested on: NCI-H1650
# Summary of the method: as §1
# NCI-H520 = tested on: NCI-H520
# Summary of the method: as §1
# H3255 = tested on: H3255
# Summary of the method: as §1
# LOU-NH91 = tested on: LOU-NH91
# Summary of the method: as §1
structure (smiles),measurement,setting,value
Nc1ccn([C@@H]2O[C@H](CO)[C@@H](O)[C@@H]2O)c(=O)n1 [Cytarabine] + CC1(C)CCC(c2ccc(Cl)cc2)=C(CN2CCN(c3ccc(C(=O)NS(=O)(=O)c4ccc(N[C@H](CCN5CCOCC5)CSc5ccccc5)c(S(=O)(=O)C(F)(F)F)c4)cc3)CC2)C1 [Navitoclax] (partner 0.5 µM),relative viability,NCI-H322M; first compound 0.005 µM,0.846
same,relative viability,NCI-H322M; first compound 0.01581 µM,0.787
same,relative viability,NCI-H322M; first compound 0.05 µM,0.561
same,relative viability,NCI-H322M; first compound 0.1581 µM,0.46
same,relative viability,NCI-H322M; first compound 0.5 µM,0.366
same,relative viability,NCI-H1793; first compound 0.005 µM,0.273
same,relative viability,NCI-H1793; first compound 0.01581 µM,0.333
same,relative viability,NCI-H1793; first compound 0.05 µM,0.271
same,relative viability,NCI-H1793; first compound 0.1581 µM,0.261
same,relative viability,NCI-H1793; first compound 0.5 µM,0.244
same,relative viability,UMC-11; first compound 0.005 µM,0.268
same,relative viability,UMC-11; first compound 0.01581 µM,0.197
same,relative viability,UMC-11; first compound 0.05 µM,0.2
same,relative viability,UMC-11; first compound 0.1581 µM,0.141
same,relative viability,UMC-11; first compound 0.5 µM,0.125
same,relative viability,EPLC-272H; first compound 0.005 µM,1.01
same,relative viability,EPLC-272H; first compound 0.01581 µM,0.849
same,relative viability,EPLC-272H; first compound 0.05 µM,0.842
same,relative viability,EPLC-272H; first compound 0.1581 µM,0.33
same,relative viability,EPLC-272H; first compound 0.5 µM,0.247
same,relative viability,201T; first compound 0.005 µM,1.24
same,relative viability,201T; first compound 0.01581 µM,1.28
same,relative viability,201T; first compound 0.05 µM,1.19
same,relative viability,201T; first compound 0.1581 µM,1.16
same,relative viability,201T; first compound 0.5 µM,1.14
same,relative viability,NCI-H1734; first compound 0.005 µM,0.418
same,relative viability,NCI-H1734; first compound 0.01581 µM,0.322
same,relative viability,NCI-H1734; first compound 0.05 µM,0.197
same,relative viability,NCI-H1734; first compound 0.1581 µM,0.142
same,relative viability,NCI-H1734; first compound 0.5 µM,0.126
same,relative viability,NCI-H2023; first compound 0.005 µM,0.549
same,relative viability,NCI-H2023; first compound 0.01581 µM,0.356
same,relative viability,NCI-H2023; first compound 0.05 µM,0.195
same,relative viability,NCI-H2023; first compound 0.1581 µM,0.108
same,relative viability,NCI-H2023; first compound 0.5 µM,0.103
same,relative viability,NCI-H441; first compound 0.005 µM,0.547
same,relative viability,NCI-H441; first compound 0.01581 µM,0.648
same,relative viability,NCI-H441; first compound 0.05 µM,0.556
same,relative viability,NCI-H441; first compound 0.1581 µM,0.176
same,relative viability,NCI-H441; first compound 0.5 µM,0.161
same,relative viability,NCI-H2405; first compound 0.005 µM,0.851
same,relative viability,NCI-H2405; first compound 0.01581 µM,0.671
same,relative viability,NCI-H2405; first compound 0.05 µM,0.424
same,relative viability,NCI-H2405; first compound 0.1581 µM,0.373
same,relative viability,NCI-H2405; first compound 0.5 µM,0.114
same,relative viability,NCI-H3122; first compound 0.005 µM,0.968
same,relative viability,NCI-H3122; first compound 0.01581 µM,0.877
same,relative viability,NCI-H3122; first compound 0.05 µM,0.876
same,relative viability,NCI-H3122; first compound 0.1581 µM,0.682
same,relative viability,NCI-H3122; first compound 0.5 µM,0.457
same,relative viability,PC-14; first compound 0.005 µM,0.918
same,relative viability,PC-14; first compound 0.01581 µM,1.03
same,relative viability,PC-14; first compound 0.05 µM,0.803
same,relative viability,PC-14; first compound 0.1581 µM,0.314
same,relative viability,PC-14; first compound 0.5 µM,0.119
same,relative viability,COR-L23; first compound 0.005 µM,0.944
same,relative viability,COR-L23; first compound 0.01581 µM,0.842
same,relative viability,COR-L23; first compound 0.05 µM,0.555
same,relative viability,COR-L23; first compound 0.1581 µM,0.168
same,relative viability,COR-L23; first compound 0.5 µM,0.129
same,relative viability,HCC-15; first compound 0.005 µM,0.669
same,relative viability,HCC-15; first compound 0.01581 µM,0.733
same,relative viability,HCC-15; first compound 0.05 µM,0.609
same,relative viability,HCC-15; first compound 0.1581 µM,0.562
same,relative viability,HCC-15; first compound 0.5 µM,0.43
same,relative viability,NCI-H2170; first compound 0.01581 µM,0.448
same,relative viability,NCI-H2170; first compound 0.05 µM,0.361
same,relative viability,NCI-H2170; first compound 0.1581 µM,0.28
same,relative viability,NCI-H2170; first compound 0.5 µM,0.263
same,relative viability,NCI-H2347; first compound 0.005 µM,0.911
same,relative viability,NCI-H2347; first compound 0.01581 µM,0.786
same,relative viability,NCI-H2347; first compound 0.05 µM,0.635
same,relative viability,NCI-H2347; first compound 0.1581 µM,0.531
same,relative viability,NCI-H2347; first compound 0.5 µM,0.449
same,relative viability,NCI-H647; first compound 0.005 µM,0.73
same,relative viability,NCI-H647; first compound 0.01581 µM,0.517
same,relative viability,NCI-H647; first compound 0.05 µM,0.148
same,relative viability,NCI-H647; first compound 0.1581 µM,0.092
same,relative viability,NCI-H647; first compound 0.5 µM,0.0675
same,relative viability,NCI-H1650; first compound 0.005 µM,1.11
same,relative viability,NCI-H1650; first compound 0.01581 µM,1.24
same,relative viability,NCI-H1650; first compound 0.05 µM,0.616
same,relative viability,NCI-H1650; first compound 0.1581 µM,0.355
same,relative viability,NCI-H1650; first compound 0.5 µM,0.18
same,relative viability,NCI-H520; first compound 0.005 µM,0.955
same,relative viability,NCI-H520; first compound 0.01581 µM,0.902
same,relative viability,NCI-H520; first compound 0.05 µM,1.14
same,relative viability,NCI-H520; first compound 0.1581 µM,0.904
same,relative viability,NCI-H520; first compound 0.5 µM,0.781
same,relative viability,H3255; first compound 0.005 µM,0.451
same,relative viability,H3255; first compound 0.01581 µM,0.506
same,relative viability,H3255; first compound 0.05 µM,0.411
same,relative viability,H3255; first compound 0.1581 µM,0.325
same,relative viability,H3255; first compound 0.5 µM,0.332
same,relative viability,LOU-NH91; first compound 0.005 µM,0.693
same,relative viability,LOU-NH91; first compound 0.01581 µM,0.606
same,relative viability,LOU-NH91; first compound 0.05 µM,0.463
same,relative viability,LOU-NH91; first compound 0.1581 µM,0.332
same,relative viability,LOU-NH91; first compound 0.5 µM,0.35
